In publication PMC3196589, “Fluorescent Peptide Biosensor for Probing the Relative Abundance of Cyclin-Dependent Kinases in Living Cells” (PLoS ONE, 2011):
No end group written: not given here.

Tests used:
Assay in all cases: Live-cell ratiometric quantification of CDKSENS-Cy3/Ctrl-Cy5 fluorescence
Assay type in all cases: cell-based
[1] = tested on: CDK/Cyclins in HeLa cells
Experimental: (§1) Cell culture media, serum and antibiotics were purchased from Invitrogen. HeLa, HS68, A549, MCF-7 and U2OS cells were obtained from ATCC and were cultured in Dulbecco's Modified Eagle Medium (DMEM)+Glutamax supplemented with 10% Fetal Calf Serum (FCS), 1 mM penicillin and 1 mM streptomycin at 37°C in an atmosphere containing 5% CO2. HT2-19 cells, provided by Dr. A.Porter, were cultured in DMEM supplemented with non essential amino acids, antibiotics, sodium pyruvate, glutamine, and 10% FCS and grown with 50 uM isopropyl-thiogalactoside (IPTG) for maximal induction of CDK1 [28]. Cell extracts were prepared in lysis buffer containing 50 mM TrisHCl, pH 7.4, 150 mM NaCl, 0.1% NP40, 0.1% Deoxycholate, 2 mM EDTA, 1 mM phenylmethlsulfonyl fluoride (PMSF), CompleteTM protease inhibitors (Roche), 50 mM NaF, 40 mM β-Glycero-phosphate, 1 mM Na3VO4 and normalized following spectrophotometric dosage at 280 nm. […] Samples were then processed for SDS-PAGE and CDK, Cyclin retention was detected by Western blotting.
(§2) For fixed observations, cells were treated for 20 minutes with paraformaldehyde, nuclei were stained with Hoechst 33342 (Sigma), and cells were mounted with Prolong Gold AntiFade Reagent (Invitrogen). Epifluorescence images were acquired on a Leica DM6000 microscope (Leica Microsystems) piloted by the Metamorph software (Universal Imaging). For colocalization experiments, images were acquired on a Zeiss axioplan2/LSM510 META confocal microscope. Live-cell imaging was performed on a Zeiss Axiovert 200 M piloted by the Metamorph software. Images were processed with ImageJ software.
(§3) CDKSENS-Cy3 and Ctrl-Cy5 were complexed individually with CADY2 and codelivered into cells. Live-cell imaging acquisitions were substracted for background signal corresponding to minimal fluorescence levels using Metamorph. Image J was then used for image analysis. Regions of interest (ROI) corresponding to 10–15 cells in which fluorescence appeared homogeneous were designed and the mean grey levels of fluorescence for each channel (Cy3 and Cy5) were quantified within these ROIs. For each experiment, and the mean ratiometric value of CDKSENS-Cy3/Ctrl-Cy5 was calculated from 3–4 different ROIs. Each experiment was performed 3–4 times to assess the robustness of the quantification strategy. All statistical analyses are presented by the mean and standard deviation.

[2] = tested on: CDK/Cyclins in U20S cells
Experimental: as §1, §2, §3

[3] = tested on: CDK/Cyclins in HT2-19 cells; details: for Mean Ratio CDKSENS-Cy3/Ctrl-Cy5: mean +/- SD of 3 fields
Experimental: as §1, §2, §3

Substance: CDKSENS-Cy3: CDKSENS labelled with cyanine probe Cy3 (C(Cy3 maleimide)DKSENS)
- Mean Ratio CDKSENS-Cy3/Ctrl-Cy5 ([1]; HeLa (A549 experiment), mean +/- SD of 3 fields): 6,72+/−0,37
- Relative Mean Ratiometric Value ([1]; HeLa (A549 experiment), normalized to highest mean): 1+/−0,054
- Relative Mean Ratiometric Value ([1]; HeLa (HS68 experiment), normalized to highest mean): 1+/−0,039
- Mean Ratio CDKSENS-Cy3/Ctrl-Cy5 ([1]; HeLa (MCF7 experiment), mean +/- SD of 4 fields): 7,29+/−0,39
- Relative Mean Ratiometric Value ([1]; HeLa (MCF7 experiment), normalized to highest mean): 1+/−0,053
- Relative Mean Ratiometric Value ([1]; HeLa (U20S experiment), HeLa set to 1): 1+/−0,079
- Mean Ratio CDKSENS-Cy3/Ctrl-Cy5 ([1]; HeLa (U20S experiment), mean +/- SD of 4 fields): 6,79+/−0,53
- difference in CDKSENS-Cy3/Ctrl-Cy5 ratio, U20S vs HeLa ([2]; U20S compared to HeLa): did not reveal a significant difference
- Mean Ratio CDKSENS-Cy3/Ctrl-Cy5 ([2]; U20S, mean +/- SD of 4 fields): 7,16+/−0,65
- decrease of CDKSENS-Cy3/Ctrl-Cy5 ratio without IPTG ([3]; HT2-19, 4 days without IPTG vs 50 uM IPTG): 20%
- Mean Ratio CDKSENS-Cy3/Ctrl-Cy5 ([3]; HT219+IPTG): 5,37+/−0,18
- Relative Mean Ratiometric Value ([3]; HT219+IPTG, normalized to highest mean): 1+/−0,033
- Mean Ratio CDKSENS-Cy3/Ctrl-Cy5 ([3]; HT219 WO IPTG): 4,36+/−0,21
